Experimental data from patent publication US6544533B2, “10-hydroxy-2-decenoic acid compounds for promoting desquamation/epidermal renewal of the skin and/or combating skin aging” (Societe L'Oreal S.A., priority 1998, dated 2003).

System: differentiated human keratinocytes
Test: in vitro screening of desquamating activity: release of corneocytes (cellular detachment index) counted by flow cytometry
Type: cell-based
Conditions: compounds at 5·10^−5 M, 60 minutes after addition
Procedure: This test of in vitro screening of an agent which is active with regard to desquamation was carried out on differentiated human keratinocytes. The principle of the test is based on the fact that desquamation induces the release of corneocytes. The desquamating power of the test product increases as the number of corneocytes released increases.
The protocol of the test was as follows: beginning with biopsies of human skin, the keratinocytes obtained by separation from the epidermis were dissociated by enzymatic action with trypsin and were cultured at a concentration of 2·10^5 cell/ml. The growth and differentiation of the keratinocytes was obtained by culturing for 10 to 20 days in a specific medium. The activity of the test product was then evaluated after removal of the culture medium. To accomplish this, two samples were taken at T0 and T60, namely, before the addition of the test product and 60 minutes after this addition. The samples thus taken were analyzed with a flow cytometer in order to count the population of corneocytes. The flow cytometer made it possible to distinguish the populations of corneocytes and of keratinocytes by treatment with acridine orange, which is specific for cellular DNA.
The cellular detachment index was determined by the difference between T60 and T0. The same measurement was carried out for a control not comprising test product, because the experiment inevitably produces the release of corneocytes, even in the absence of active principles.
The test was carried out with compounds at a concentration of 5·10^−5M.

Structure (SMILES)	% of activity with respect to the control composed of an identical culture in the absence of compound (cellular detachment index, T60 minus T0) [%]
COCCOCOCC(COC(=O)/C=C/CCCCCCCO)OC(=O)/C=C/CCCCCCCO (stereo not drawn) [3-[(2-methoxyethoxy)methoxy]propyl 1,2-di(10-hydroxydec-2-enoate)]	124.16
O=C(/C=C/CCCCCCCO)OCC(COC(=O)/C=C/CCCCCCCO)OC(=O)/C=C/CCCCCCCO [Propyl 1,2,3-tri(10-hydroxydec-2-enoate), propyl 1,2,3-tri(10-hydroxydec-2-enoate)]	148.52
CCCCCCCC(=O)c1ccc(O)c(C(=O)O)c1 [Reference, 2-Hydroxy-5-octanoylbenzoic acid, reference compound]	91.95
